Laboratory results: patent publication US8486431B2 (priority 2005, dated 2013)

What was measured:
[1] = target: T1, glucose-6-phosphate dehydrogenase (G6PD) (Saccharomyces cerevisiae, UniProt P11412); test: Protein denaturation experiment: enzyme activity of G6PD reacted with chlorine dioxide; type: biochemical, yeast; settings: 0.07 ppm chlorine dioxide in PBS pH7; 25° C., 2 minutes; compared with 0 ppm
T1 construct: purchased Sigma Corp
Procedure: The enzyme activity of G6PD was determined by observing absorption of NADPH by a spectral photometer, with using NADP and glucose-phosphoric acid as the substrate. Specific reaction conditions were set according to the manufacturer's (Sigma Corp.) instructions.
The concentration values on the horizontal axis are shown as being converted into the unit of ppm. The “specific activity” on the vertical axis represents enzyme activity (unit/mg) per 1 mg of protein

[2] = system: Type A influenza strain A/PR8 (H1N1); settings: mouse, in vivo
[3] = system: Type A influenza strain A/PR8 (H1N1); parameters: species or system mice; settings: mouse, in vivo

T1 sequence (P11412 whole entry): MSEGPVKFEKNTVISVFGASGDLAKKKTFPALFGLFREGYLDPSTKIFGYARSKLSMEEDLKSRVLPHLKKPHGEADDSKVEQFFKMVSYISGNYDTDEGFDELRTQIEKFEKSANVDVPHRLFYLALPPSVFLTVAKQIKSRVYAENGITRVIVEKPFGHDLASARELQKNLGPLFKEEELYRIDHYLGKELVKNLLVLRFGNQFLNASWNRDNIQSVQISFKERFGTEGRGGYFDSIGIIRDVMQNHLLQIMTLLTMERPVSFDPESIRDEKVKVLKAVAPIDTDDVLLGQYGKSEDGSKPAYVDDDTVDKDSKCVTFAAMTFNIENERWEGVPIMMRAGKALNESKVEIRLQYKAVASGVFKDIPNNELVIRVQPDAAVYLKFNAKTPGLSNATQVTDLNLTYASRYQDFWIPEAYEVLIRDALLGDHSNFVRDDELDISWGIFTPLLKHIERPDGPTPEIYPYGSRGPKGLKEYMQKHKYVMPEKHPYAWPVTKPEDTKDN

With `[O][Cl+][O-]` [chlorine dioxide] the “reduction in the enzyme activity of G6PD” value [1] was “about 60%”, the “chlorine dioxide concentration required for preventing influenza virus infection” value [2] was 0.0001 ppm and the “chlorine dioxide gas concentration effective for influenza onset inhibition” value [2] was “at least 0.05 ppm”. For the same compound, the “deaths compared with 0 ppm group” value [2] was “deaths occurred with delay”, the “number of onsets of influenza and virus amount in the lung versus control group (0 ppm)” value [2] was “no significant difference was found” and the “Total virus amount in lung tissues on Day 3 after 10 LD50 virus exposure (TClD50 values)” value [3] was 10^3 TClD50. The “lung virus amount relative to that of the control group (0 ppm group)” value [3] was 5% and the “total virus amounts in lung after delayed administration” value [3] was “smaller than expected”.
